Assay results: patent publication US12617752B2, “Rapidly metabolized lipid compound” (Beijing Jitai Life Sciences Ltd, priority 2023, dated 2026)

Tests used:
HEK293T cells [1] = assay: Cytotoxicity testing with CCK-8 reagent; assay type: cell-based, human; conditions: CCK-8, 24 h, relative to PBS negative control
Description: (§1) The delivery effect and safety of nanoparticles encapsulated with luciferase mRNA were evaluated at the cellular level in vitro. The cells used in the assay were human embryonic kidney cells 293 (HEK293T cells) cultured in DMEM (Dulbecco's Modified Eagle Medium) (purchased from Thermo Fisher) containing 10% fetal bovine serum and 5% penicillin-streptomycin double antibiotics at a indoor temperature of 37° C. and a CO2 concentration of 5%. The cells were uniformly dispersed and spread in 48-well plates, and incubated in the incubator for 24 h. Then a solution of the lipid nanoparticles encapsulated with luciferase mRNA were added. After 24 h, the cells were lysed, and the intracellular expression intensity and relative light units (RLU) of luciferase in each type of lipid nanoparticles were measured with a luciferase detection reagent (purchased from Promega). The higher the intensity of expression, the higher the delivery efficiency of the lipid material at the cellular level. […] The absorbance values were read on a multifunctional microplate reader at an absorbance band of 450 nm. The ratio of the absorbance value of the nanoparticle-treated cells to that of the negative control was used as a characterization parameter for cell viability.

HEK293T cells [2] = assay: In vitro delivery efficiency of luciferase mRNA nanoparticles (luciferase expression); assay type: cell-based, human; conditions: 24 h
Description: as §1

[3] = Encapsulation efficiency of lipid nanoparticles (Quant-it RiboGreen RNA Assay); assay type: physicochemical; conditions: lipid nanoparticles with luciferase mRNA
Procedure, shortened: (§2)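 LNPs of ionizable lipid/cholesterol/phospholipid/PEG-lipid (50/38.5/10/1.5 mol%, N/P 6) were formed by microfluidic mixing with mRNA in pH 4.5 acetate, then buffer-exchanged by ultrafiltration. Size and PDI were measured by DLS. Encapsulation came from RiboGreen fluorescence (485/528 nm) in TE pH 7.5, with and without 0.5% Triton at 37 °C for 30 min.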

C57BL/6 mice = assay: In vivo delivery of luciferase mRNA lipid nanoparticles in mice (bioluminescence imaging); conditions: intravenous, single dose 0.5 mg/kg luciferase mRNA
Procedure, shortened: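 Female C57BL/6 mice, 6-8 weeks old, received luciferase mRNA lipid nanoparticles as a single intravenous dose of 0.5 mg/kg mRNA. At 6 h, D-luciferin given intraperitoneally; 10 min later, mice were imaged under isoflurane anaesthesia. Values are group mean fluorescence intensity and total photon count.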

[4] = Particle size and PDI of lipid nanoparticles by dynamic light scattering; assay type: physicochemical; conditions: lipid nanoparticles with luciferase mRNA; ionizable lipid/cholesterol/DSPC/DMG-PEG2000 50/38.5/10/1.5 mol%
Procedure, shortened: as §2

[5] = Clearance rate of ionizable lipids in vivo (liver content by LC-MS/MS); conditions: C57 WT female mice, tail vein, 100 μL unloaded LNP (0.1 mg/mL)
Description: The 6-8 weeks old C57 WT female mice (n=3) were injected by tail vein administration of 100 μL of unloaded LNP (0.1 mg/mL) formed from the ionizable lipid, cholesterol, DSPC, and DMG-PEG 2000 at a ratio of 50:38.5:10:1.5. The experimental animals were executed by removing the cervical vertebrae and dissected for the liver at 24 h and 72 h after administration, respectively, while the same batch of non-dosed experimental animal livers were used as a blank control group. Water was added to the liver sample for homogenization, and the protein was precipitated. The content of the ionizable lipid in the sample was quantitatively analyzed using LC-MS/MS in comparison to a calibration standard prepared from matched blank liver tissues.

Compound	Cell viability (%) (HEK293T cells [1])	Luciferase luminescence of cell lysate (HEK293T cells [2]) [RLU]	Encapsulation efficiency (%) [3] [%]	Total photon count in vivo at 6 hours after administration (Total Flux) (C57BL/6 mice)	Particle size (nm) [4] [nm]	Particle-size distribution (PDI) [4]	Percentage of cationic lipids in the liver in the total dose, 24 h after administration (%) [5] [%]	Percentage of cationic lipids in the liver in the total dose, 72 h after administration (%) [5] [%]
CCCCCCCCCOC(=O)CCCCCCCN(CCO)CCCCC(C)(C)CCC(=O)OC(CCCCCCCC)CCCCCCCC [20a]	105.11	6.55E+06	87.83	1.18E+11	102.13	0.032		
CCCCCCCCCCC(=O)OCC(C)(C)CCCCCN(CCCCCCCC(=O)OC(CCCCCCCCC)CCCCCCCCC)C(=O)SCCCN(C)C [39b]			93.58	7.16E+10	102.67	0.07	<1	<1
CCCCC#CCCCOC(=O)CCCCCCCN(CCO)CCCCCCC(C)(C)C(=O)OC(CCCCCCCC)CCCCCCCC [56a]			82.84	3.23E+10	86.37	0.09	<1	<1
CCCCC/C=C\C/C=C\CCCCCCCCC(CCCCCCCC/C=C\C/C=C\CCCCC)OC(=O)CCCN(C)C [MC3, DLin-MC3-DMA, reference compound]	97.84	2.95E+06	95.62	8.04E+09	96.83	0.04		
